pKd: −log10 of the molar value. Where a SMILES comes first, the peptide text is derived from it. [ ]: non-standard residue; d: D form. pS = N[C@@H](COP(=O)(O)O)C(=O)O
How the values were obtained:
14-3-3 isoform theta = target: T1, 14-3-3 isoform theta (Homo sapiens, UniProt P27348); test: Label-free microscale thermophoresis (MST) binding, 14-3-3 theta; conditions: label-free MST, 0.6 µM 14-3-3 protein, 25 mM MES pH 6.5, 5 mM MgCl2, 5 mM CaCl2, 25°C; Kd from duplicate measurements; read-out: Affinity estimates by MicroScale Thermophoresis, 14-3-3 isoform theta (Kd)
T1 construct: His6; made in house; host or cells: Escherichia coli BL21 Rosetta (DE3)
T1 sequence (P27348 1-245): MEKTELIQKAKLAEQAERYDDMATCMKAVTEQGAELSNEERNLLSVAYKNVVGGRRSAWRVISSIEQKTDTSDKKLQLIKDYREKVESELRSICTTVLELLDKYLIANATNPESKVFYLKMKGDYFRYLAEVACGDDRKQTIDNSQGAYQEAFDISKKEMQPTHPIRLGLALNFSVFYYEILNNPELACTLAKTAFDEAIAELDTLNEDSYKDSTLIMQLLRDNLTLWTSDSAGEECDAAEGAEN
Description: (§1) The binding of phosphorylated sirtuin peptides (Fig. 1 ▸) was analyzed using the change in the intrinsic fluorescence signal of the 14-3-3 proteins measured with label-free microscale thermophoresis using a Nanotemper Monolith NT.LabelFree or NT.115. A typical binding experiment using 0.6 µM 14-3-3 protein was performed in a modified MST buffer consisting of 25 mM MES pH 6.5, 5 mM MgCl2, 5 mM CaCl2. The measurements were performed at 25°C using a LED power of 10–40%. All measurements were performed at least in duplicate, and the results shown are representative measurements individually fitted using GraFit 7 (Erathicus Software, Horley, United Kingdom).
(§2) Figure 1 Classification and analysis of sirtuin PSSM results for potential 14-3-3 phosphoserine binding sites. Peptides with a gray background were not analyzed experimentally. Score is the overall PSSM score for the phosphorylation site; rank is the order within the 17 proposed sirtuin binding sites. Conserved residues in the 14-3-3 motifs are marked in green. Residues with restricted (proline) or very flexible (glycine) protein backbone or with a very large side chain (tryptophan) are marked in red. Amino acids with the same or similar hydrophobicity/size are shown in magenta. Kd values from duplicate measurements are colored green for Kd < 100 µM. Fields marked in red indicate no binding or no successful experiment. TEXT PRINTED IN THE PICTURE: Sirt1 S26: Affinity estimates by MicroScale Thermophoresis [μM], 14-3-3 isoform sigma: none | Sirt1 S670: Affinity estimates by MicroScale Thermophoresis [μM], 14-3-3 isoform gamma: aggr.; Affinity estimates by MicroScale Thermophoresis [μM], 14-3-3 isoform epsilon: > 183; Affinity estimates by MicroScale Thermophoresis [μM], 14-3-3 isoform theta: 93; Affinity estimates by MicroScale Thermophoresis [μM], 14-3-3 isoform sigma: 5 | Sirt3 S103: Affinity estimates by MicroScale Thermophoresis [μM], 14-3-3 isoform gamma: aggr.; Affinity estimates by MicroScale Thermophoresis [μM], 14-3-3 isoform epsilon: > 267; Affinity estimates by MicroScale Thermophoresis [μM], 14-3-3 isoform theta: 52; Affinity estimates by MicroScale Thermophoresis [μM], 14-3-3 isoform sigma: 10 | Sirt3 S103wt: Affinity estimates by MicroScale Thermophoresis [μM], 14-3-3 isoform gamma: aggr.; Affinity estimates by MicroScale Thermophoresis [μM], 14-3-3 isoform theta: none; Affinity estimates by MicroScale Thermophoresis [μM], 14-3-3 isoform sigma: none | Sirt3 S105: Affinity estimates by MicroScale Thermophoresis [μM], 14-3-3 isoform gamma: aggr.; Affinity estimates by MicroScale Thermophoresis [μM], 14-3-3 isoform epsilon: > 215; Affinity estimates by MicroScale Thermophoresis [μM], 14-3-3 isoform theta: 60; Affinity estimates by MicroScale Thermophoresis [μM], 14-3-3 isoform sigma: none | Sirt5 S168: Affinity estimates by MicroScale Thermophoresis [μM], 14-3-3 isoform epsilon: aggr.; Affinity estimates by MicroScale Thermophoresis [μM], 14-3-3 isoform theta: aggr.; Affinity estimates by MicroScale Thermophoresis [μM], 14-3-3 isoform sigma: > 329 | Sirt6 T337: Affinity estimates by MicroScale Thermophoresis [μM], 14-3-3 isoform epsilon: > 420; Affinity estimates by MicroScale Thermophoresis [μM], 14-3-3 isoform sigma: 12 | Sirt6 S338: Affinity estimates by MicroScale Thermophoresis [μM], 14-3-3 isoform epsilon: 19; Affinity estimates by MicroScale Thermophoresis [μM], 14-3-3 isoform sigma: 24 | Sirt7 S136: Affinity estimates by MicroScale Thermophoresis [μM], 14-3-3 isoform epsilon: none; Affinity estimates by MicroScale Thermophoresis [μM], 14-3-3 isoform theta: 30; Affinity estimates by MicroScale Thermophoresis [μM], 14-3-3 isoform sigma: 49

14-3-3 isoform epsilon = target: T2, 14-3-3 isoform epsilon (Homo sapiens, UniProt P62258); test: Label-free microscale thermophoresis (MST) binding, 14-3-3 epsilon; conditions: label-free MST, 0.6 µM 14-3-3 protein, 25 mM MES pH 6.5, 5 mM MgCl2, 5 mM CaCl2, 25°C; Kd from duplicate measurements; read-out: Affinity estimates by MicroScale Thermophoresis, 14-3-3 isoform epsilon (Kd)
T2 construct: His6; made in house; host or cells: Escherichia coli BL21 Rosetta (DE3)
T2 sequence (P62258 1-255): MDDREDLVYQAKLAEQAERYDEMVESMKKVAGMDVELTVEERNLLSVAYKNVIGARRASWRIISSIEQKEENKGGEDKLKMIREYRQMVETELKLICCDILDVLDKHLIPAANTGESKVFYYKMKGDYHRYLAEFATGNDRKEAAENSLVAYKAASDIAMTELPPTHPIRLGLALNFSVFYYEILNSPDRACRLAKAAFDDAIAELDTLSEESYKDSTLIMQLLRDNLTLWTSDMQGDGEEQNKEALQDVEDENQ
Description: as §1, §2

With `CC(C)C[C@H](NC(=O)[C@@H](N)C(C)C)C(=O)N[C@@H](CO)C(=O)N[C@@H](CO)C(=O)N[C@@H](CO)C(=O)N[C@@H](COP(=O)(O)O)C(=O)N[C@@H](CS)C(=O)NCC(=O)N[C@@H](CO)C(=O)N[C@@H](CC(N)=O)C(=O)N[C@@H](CO)C(=O)O` [Sirt1^pS670] (H-VLSSS[pS]CGSNS-OH) the pKd (14-3-3 isoform theta) was 4.03 and the pKd (14-3-3 isoform epsilon) was less than 3.74.
